In US20040063681A1, “Methods for using gold (III) complexes as anti-tumor and anti-HIV agents” (priority 2002, published 2004):
Several values for one entry are separate records, joined by “and”; a condition that tells them apart may be missing. Identical values can stand only once.

Columns and labels:
[1] = 1H-NMR stability experiments with GSH; type: physicochemical; conditions: 72 h
Description: ^1H-NMR experiments. […] The pH was adjusted to 7.4 with NaOD, and the solution was degassed for 10 min by bubbling with nitrogen to minimize oxidation of GSH. Similar experimental setup was done for Complex 1j, except this analysis was carried out in D2O only. The electronic spectra of the resulting mixtures was then monitored for 72 h.
It is known that the chemical shifts of the pyrrolic protons are sensitive to the oxidation states of the gold center, and reduction of Au(III) to Au(I) or Au(0) is expected to be accompanied by spectral changes in the pyrrolic region.
Glutathione can be oxidized to form a disulfide bridged dimer (GSSG) with a mild oxidizing agent such as gold(III) complex. A previous study by Sun et al., Eur. J. Biochem. 267:5450-5457 (2000) established that GSSG is characterized by a doublet absorption peak at δH 3.30 ppm, assignable to β-CH2 group as depicted in Scheme 5. Scheme 5. Characteristic proton resonance absorptions for (a) GSH and (b) GSSG in D2O [drawing 29]
The results of the NMR studies indicate that illustrative Complexes 1a-1k are stable under physiologically relevant conditions.

[2] = target: T1, HIV-1 reverse transcriptase (Human immunodeficiency virus type 1 group M subtype B, UniProt P04585); experiment: HIV-1 reverse transcriptase activity, ELISA method; type: biochemical; conditions: ELISA; mean ± SE of at least three determinations; read-out: IC50 HIV-1 RT
T1 construct: treatment of HIV-1 RT in Lysis buffer (2 ng, 128.7 μL) with Complex 1j
Description: HIV-1 reverse transcriptase activities were measured by an ELISA method (see Eberle et al, J. Virol. Methods, 40:347-356 (1992) performed by incubating the enzyme with digoxigenin-labeled deoxyuridin-5′-triphosphate (dUTP) and the biotin-labeled analogue during reverse transcription starting from the template/primer hybrid poly(A)•oligo(dT)15. After reverse transcription, the newly synthesized DNA was immobilized onto streptavidin-coated ELISA wells, and the incorporation of the dioxigenin-labeled dUTP was assayed by chemiluminescence method. For example, treatment of HIV-1 RT in Lysis buffer (2 ng, 128.7 μL) with Complex 1j (1.3 μL of […] stock solution) dissolved in TBS at 37° C. produced significant RT activity inhibition (˜95%) after 30 min incubation.

[3] = system: HeLa cells; experiment: Flow cytometry annexin V/propidium iodide apoptosis assay; type: cell-based, human
Excerpt: Flow cytometry: The gold(III) porphyrin-induced apoptosis of the HeLa cell line has been further examined by flow cytometry. During the early phase of apoptosis, cells lose the asymmetry of their membrane phospholipids, although the integrity of the cell membrane is maintained. A negatively charged phospholipid, named phosphatidylserine (PS), which is located in the inner part of the plasma membrane, becomes exposed to the cell surface. A phospholipid-binding protein, annexin V (green emissive upon binding), with high affinity binds preferentially to PS. Apoptotic cells therefore can be stained by annexin V before the dying cell changes its morphology and hydrolyzes its DNA. On the other hand, both DNA and the PS would be exposed for necrotic cells. In this case, propidium iodide (PI, red emissive upon binding), can be used to stain selectively the naked DNA. Therefore, both apoptotic and necrotic cells can be discriminated after adding these two staining reagents. For apoptotic cells, only annexin V would stain; for necrotic cells, both annexin V and PI would stain.
For comparison, a control cell culture experiment was performed in the absence of Complex 1a and straurosporine. […] Throughout the flow cytometric experiment, <1% of necrotic cells were observed.

[4] = system: human lung fibroblast cells (CCD-19Lu); conditions: MTT
Description: Acute cytotoxicities of the gold(III) complexes to normal cells were evaluated using human lung fibroblast cells (CCD-19Lu) as model cell line. The percentages of cell survival at various doses of the gold complexes were determined by the MTT assay, and the toxicities profiles are shown in FIG. 15.

[5] = system: Human Oral Epidermoid Carcinoma (KB-3-1); experiment: MTT cytotoxicity, KB-3-1; type: cell-based; conditions: MTT, growth inhibition
Excerpt: Human promyelocytic leukemia (HL-60), human hepatocellular carcinoma (HepG2), Human cervix epitheloid carcinoma cells (HeLa) and human oral epidermoid carcinoma cells (KB-3-1), were obtained from American Type Culture Collection (ATCC) (Rockville, Md.). […] Cell culture flasks and 96 well microtitre plates were from Nalge Nunc hit. Culture medium, other medium constituents and phosphate buffered saline (PBS) were obtained from Gibco BRL (Rockville, Md.). Cell Proliferation Kit I (MTT) was purchased from Roche (Mannheim, Germany).

[6] = system: Human Promyelocytic Leukemia (HL-60); experiment: MTT cytotoxicity, HL-60; type: cell-based; conditions: growth inhibition
Excerpt: Human promyelocytic leukemia (HL-60), human hepatocellular carcinoma (HepG2), Human cervix epitheloid carcinoma cells (HeLa) and human oral epidermoid carcinoma cells (KB-3-1), were obtained from American Type Culture Collection (ATCC) (Rockville, Md.). The multi-drug-resistant variant KB-V1 cell line was obtained by stepwise selections for vinblastine resistance as described by Shen et al., J. Biol. Chem. 261:7762-7770 (1986)], and was generously provided by Dr Michael Gottesman (NIH, Bethesda, Md.). Human nasopharyngeal carcinoma cells (SUNE1 and its cisplatin resistance variant, CNE1) were derived from poorly differentiated NPC in Chinese patients as described by Gu et al., Chin. J. Cancer 2:270-272 (1983), and were generously provided by Dr S. W. Tsao (The University of Hong Kong, Hong Kong, PRC). Cell culture flasks and 96 well microtitre plates were from Nalge Nunc hit. Culture medium, other medium constituents and phosphate buffered saline (PBS) were obtained from Gibco BRL (Rockville, Md.). Cell Proliferation Kit I (MTT) was purchased from Roche (Mannheim, Germany).
The anti-cancer activities of the gold(III) porphyrin complexes were evaluated toward some established human cancer cell lines: promyelocytic leukemia (HL-60), hepatocellular carcinoma (HepG2), cervix epitheloid carcinoma (HeLa), epidermoid carcinoma (KB-3-1) and its multi-drug resistant variant (KB-V1), nasopharyngeal carcinoma (SUNE1) and its cisplatin-resistant variant (CNE1). The experiments were carried out by following the MTT procedure (see Mosmann et al., J. Immunol. Methods 65:55-63 (1983). The IC50 values of the gold(III) porphyrin complexes together with that of cisplatin, and KAuCl4 are provided in Table 4a; and the IC50 values of the gold(III) Schiff-base and bis(pyridyl)carboxamide complexes are shown in Table 4b. The cytotoxicity profiles of some selected gold(III) porphyrin complexes toward SUNE1 and its cisplatin-resistant variant CNE1 are also shown in FIG. 7.

[7] = Control UV-vis titration with sodium dodecyl sulfate instead of DNA; type: binding; conditions: sodium dodecyl sulfate (0-5 μM) instead of DNA
Excerpt: See Neidle, S. DNA structure and recognition; Oxford University Press: Oxford, 1994; 74-79.

## C1=Cc2nc1c(-c1ccccc1)c1ccc([n-]1)c(-c1ccccc1)c1nc(c(-c3ccccc3)c3ccc([n-]3)c2-c2ccccc2)C=C1.[Au+3].[Cl-] [Complex 1a]
[1]; GSH (2 mM), D2O/CD3CN (9:1 v/v), room temperature
  1H NMR spectral changes: no significant spectral changes were observed
[1]; with GSH
  changes of 1H NMR spectral pattern in the aromatic region (δH 7.2-8.4 ppm): did not observe any significant changes of the spectral pattern
[2]
  IC50: 28.4 µM and 28 µM
[3]; 6 h of incubation
  cells that underwent apoptosis: 24%
[3]; 15 h of incubation
  cells died via apoptosis: 57%
[3]; after treatment (Complex 1a 6 and 15 h; straurosporine 15 h)
  annexin V emission: the magnitude of the annexin V emission was enhanced
[3]; throughout the flow cytometric experiment
  necrotic cells: < 1%
[4]; CCD-19Lu, 2 μM
  cell death: 90%
[4]; read-out: IC50 CCD-19Lu, mean ± SE of at least three determinations
  IC50: 910 ± 210 nM
[5]
  IC50: 200 nM
[6]
  IC50: 730 nM
[7]
  hypochromicity of the Soret band: 48%
